Structures can show the parent of a compound that is named as a salt. Where two headings read alike, the source gives them in different places.
Columns and labels:
[1] = Solubility in N-methyl pyrrolidone; assay type: physicochemical; settings: for Behaviour of heated N-methyl pyrrolidone solution on cooling: significant heating needed
Excerpt: We have examined the quantity in ml of N-methyl-pyrrolidone which is necessary to dissolve 0.1 gram of each respective compound.

[2] = Spontaneous gel-formation with solvents / with N-methyl-pyrrolidone / mixed gels; assay type: physicochemical
Excerpt: We have studies spontaneous gel-formation with various solvents on the one hand and various pharmaceutical active ingredients on the other. The following solvents are used: methanol, ethanol, isopropanol, n-butanol, isobutanol, dichloromethane, chloroform, carbon tetrachloride, ethyl acetate, acetonitrile, n-hexane, petrol, benzene, toluene, petrolether, ether, dimethyl formamide, dimethyl sulfoxide, isopropyl myristate.
Furtheron gel-formation has been studied between N-methyl-pyrrolidone and further pharmaceutical active ingredients. The following active ingredients are used: gentamycin, doxycyclin, oxolinic acid, nalidixic acid, drotaverin, theophyllin, acetyl salicylic acid, papaverin, indomethacin.
We have studied furtheron the possibility of the preparation of mixed gels comprising two active ingredients, including antibiotics other then primycin (e.g. gentamicin, doxycyclin, oxytetracyclin, chloramphenicol etc.).

[3] = test system: acne; settings: human, in vivo
[4] = test system: gram-positive bacteria; settings: cited from earlier work

Molecule | Required amount of N-methyl pyrrolidone necessary to dissolve 0.1 g ([1]; (A) Room Temperature) | Required amount of N-methyl pyrrolidone necessary to dissolve 0.1 g ([1]; (B) Under Heating) | Gel formation with N-methyl-pyrrolidone [2] | further results
CCCSc1ccc2nc(NC(=O)OC)[nH]c2c1 [Albendazole] | 1.5 milliliters | 1.0 milliliters |  | 
CC(=O)OCC(=O)[C@@]1(O)CC[C@H]2[C@@H]3CCC4=CC(=O)CC[C@]4(C)[C@H]3[C@@H](O)C[C@@]21C [Hydrocortisone-Acetate] | 1.0 milliliters | 0.2 milliliters |  | 
C[C@@H]1[C@H](O)[C@@H](C)/C=C/C=C/CC/C=C/C=C/C=C/C=C/C(O[C@H]2O[C@H](C)[C@@H](O)[C@H](N)[C@@H]2O)CC2O[C@](O)(CC(O)C(O)CCC(O)CC(O)CC(O)CC(=O)O[C@H]1C)CC(O)C2C(=O)O (stereo partly drawn) [Nystatin] | 5.0 milliliters | 2.0 milliliters |  | 
[H]/N=C(/N)N[C@H]1[C@H](O)[C@@H](O)[C@H](O[C@@H]2O[C@@H](C)[C@](O)(C=O)[C@H]2O[C@@H]2O[C@@H](CO)[C@H](O)[C@@H](O)[C@@H]2NC)[C@@H](N/C(N)=N\[H])[C@@H]1O [Streptomycin Sulfate] | 20.0 milliliters | does not dissolve |  | 
CC(=O)Oc1ccccc1C(=O)O [acetyl salicylic acid] |  |  | None of the above active ingredients form a stable transparent gel | 
C[C@H]1c2cccc(O)c2C(O)=C2C(=O)[C@]3(O)C(O)=C(C(N)=O)C(=O)[C@@H](N(C)C)[C@@H]3[C@@H](O)[C@@H]21 [doxycyclin] | 10.0 milliliters | 2.0 milliliters | None of the above active ingredients form a stable transparent gel | 
CCOc1ccc(/C=C2\NCCc3cc(OCC)c(OCC)cc32)cc1OCC [drotaverin] |  |  | None of the above active ingredients form a stable transparent gel | 
COc1ccc2c(c1)c(CC(=O)O)c(C)n2C(=O)c1ccc(Cl)cc1 [indomethacin] |  |  | None of the above active ingredients form a stable transparent gel | 
CCn1cc(C(=O)O)c(=O)c2ccc(C)nc21 [nalidixic acid] | does not dissolve | 6.0 milliliters | None of the above active ingredients form a stable transparent gel | Behaviour of heated N-methyl pyrrolidone solution on cooling [1]: precipitates after cooling
CCn1cc(C(=O)O)c(=O)c2cc3c(cc21)OCO3 [oxolinic acid] | does not dissolve | 8.0 milliliters | None of the above active ingredients form a stable transparent gel | Behaviour of heated N-methyl pyrrolidone solution on cooling [1]: precipitates after
COc1ccc(Cc2nccc3cc(OC)c(OC)cc23)cc1OC [papaverin] |  |  | None of the above active ingredients form a stable transparent gel | 
Cn1c(=O)c2[nH]cnc2n(C)c1=O [theophyllin] |  |  | None of the above active ingredients form a stable transparent gel | 
[5-(18-(α-D-arabinofuranosyloxy)-2-butyl-3,7,11,15,19,21,23,25,27-nonahydroxy-4,16,32,34-tetramethyl-1-oxo-oxacyclohexatriaconta-16,32-dien-35- yl)-4-hydroxyhexyl]-guanidinium-sulfate [Primycin] | does not dissolve | 0.5 milliliters | spontaneous gel-formation resulting in the formation of a stable transparent gel | Solubility in N-methyl-pyrrolidone (in words) [1]: not easily dissolved; Temperature-dependance of the solubility [1]: more than two orders of magnitude; Absorption into the blood stream [3]: not to be absorbed by the blood stream; Skin irritation on topical application [3]: severe irritation to the skin; Toxicity upon entry into the bloodstream [3]: significantly toxic; Effect in combination with other antibiotics ([4]; Hungarian patent No. 158,241): synergistic effect; Antibacterial spectrum ([4]; prior art): particularly effective against gram-positive bacteria but active against polyresistant human pathogenic strains as well; Resistance development ([4]; prior art): No resistance has developed; Precipitation from 1% solutions (1% solutions prepared under heating, on cooling): primycin precipitated upon cooling; Solubility, dissolved material (methanol): 2 µg/mL; Solubility, dissolved material (propylene glycol): 5 µg/mL; Solubility, dissolved material (water): 0.05 µg/mL; Pure gel formation with other solvents ([2]; ethanol amine, diethanol amine, triethanol amine, dimethyl formamide, dimethyl sulfoxide, 5-30%): pure gel is formed neither in the cold nor in the warm; Stable gel formation with solvents ([2]; methanol, ethanol, isopropanol, n-butanol, isobutanol, dichloromethane, chloroform, carbon tetrachloride, ethyl acetate, acetonitrile, n-hexane, petrol, benzene, toluene, petrolether, ether, dimethyl formamide, dimethyl sulfoxide, isopropyl myristate): None of the above solvents forms a stable gel with primycin
gentamycin |  |  | None of the above active ingredients form a stable transparent gel | 

— US5064815A, “Primycin-containing colloidal basic gel” (Chinoin Gyogyszer es Vegyeszeti Termekek Gyara RT., priority 1985, dated 1991)
